Reference: ChEMBL document CHEMBL1144455, “A small molecule-kinase interaction map for clinical kinase inhibitors” (Nat Biotechnol, 2005)
pKd: −log10 of the molar value.

Target: Phosphorylase b kinase gamma catalytic chain, skeletal muscle/heart isoform (Homo sapiens, UniProt Q16816)
Sequence (Q16816 whole entry, canonical isoform): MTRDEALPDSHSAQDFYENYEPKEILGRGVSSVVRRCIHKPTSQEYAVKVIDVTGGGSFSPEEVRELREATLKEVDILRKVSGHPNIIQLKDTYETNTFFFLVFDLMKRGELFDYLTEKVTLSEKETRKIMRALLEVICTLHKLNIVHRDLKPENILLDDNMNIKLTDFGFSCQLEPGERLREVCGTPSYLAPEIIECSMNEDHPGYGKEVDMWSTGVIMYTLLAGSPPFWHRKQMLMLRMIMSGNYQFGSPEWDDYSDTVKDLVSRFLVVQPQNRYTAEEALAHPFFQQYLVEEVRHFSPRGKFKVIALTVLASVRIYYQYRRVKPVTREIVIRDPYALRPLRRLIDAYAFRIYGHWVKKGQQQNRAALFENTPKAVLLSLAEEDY

For `CCOc1cc2ncc(C#N)c(Nc3ccc(F)c(Cl)c3)c2cc1NC(=O)/C=C/CN(C)C` [PELITINIB], the pKd was 5.82.
